For the assay, the system named is human myometrium. The assay can be described thus: Human myometrial contractility in vitro (organ chamber / muscle bath). The class given is cell-based. From the text: The inventors tested whether a soluble form of progesterone would inhibit human myometrial contractility in vitro (FIG. 7). FIG. 7 is a schematic drawing of the muscle bath that is used to measure uterine contractility in vitro. The system consists of a water jacketed chamber to maintain temperature at 37 degrees and an inner chamber where the tissue is suspended in Krebs'-Ringer solution and bubbled with air. The tissue is connected to a force transducer and the signals from the transducer are amplified, stored and analyzed by a data acquisition system. The inventors examined the direct effects of various tocolytics on uterine contractility with and without progesterone, as it was possible that a tocolytic used with progesterone would produce additive, synergistic or antagonistic action on contractility.

The record followed here is patent US10449183B2, “Methods for inhibiting preterm labor and uterine contractility disorders and preventing cervical ripening” (DIGNITY HEALTH, priority 2010, dated 2019).

Consider `CC(=O)[C@H]1CC[C@H]2[C@@H]3CCC4=CC(=O)CC[C@]4(C)[C@H]3CC[C@]12C` [P4, progesterone], for which the “effect on human myometrial contractions” value (10^−4M progesterone) is “inhibited myometrial contractions”. For the same compound, the “contractile inhibition of the combination” value is, setting by setting: (P4 (10^-5 M) with indomethacin (IND), term, not in labor) “increase contractile inhibition, by additive or synergistic actions”; (P4 (10^-5 M) with nifedipine (Nife), term, not in labor) “increase contractile inhibition, by additive or synergistic actions”. Further, for the setting “P4 (10^−5M) with pinacidil (10^−6.5M), term, not in labor”, the “effect on pinacidil inhibition of contractility” value was “decreases pinacidil inhibition of contractility”. For the same compound, the “effect on myometrial contractility” value (P4 soluble and crystalline in ETOH) is reported as “inhibits myometrial contractility”.
